A short description of data set [1]: in vitro. Format: cell-based. The note with it: human. The method, then: (§1) Pentamidine inhibited SPP1 mRNA in both WM858 (FIG. 15C) and M12 cells (FIG. 15D). […] Next, a red-fluorescent nuclear protein was stably expressed in M12 cells to automatically count nuclei over time (using the IncuCyte ZOOM system, Essen Bioscience), a surrogate measure of cell proliferation. Pentamidine reduced M12 proliferation with an ED50 of 40 μM.

Data set [2] is described as follows: Tolerability of i.m. Pentamidine in nude mice with intradermal M12 xenografts. Format: in vivo. The note with it: six consecutive days, female nude mice. The method, then:
(§2) To determine whether Pentamidine reduces SPP1 expression in vivo, M12 cells were injected intradermally into female nude mice and left to grow until xenograft tumors formed (FIGS. 15H and 15I). Then, four different doses of Pentamidine were injected intramuscularly (i.m.) into groups of three mice for six consecutive days. It was previously shown that serum concentration in patients injected with 4 mg/kg Pentamidine i.m. daily (FDA labeling) range from 0.2-1.4 μg/mL (0.3-2.4 μM). In rats, slightly lower levels can be achieved using 10 mg/kg i.m. daily (0.1-0.4 μg/mL) (Bernard et al., J. Inf. Dis. 152:750-754 (1985) and Waalkes et al., Clin. Pharma. Therap. 11:505-512 (1969)). In the current study, at the highest Pentamidine dose (80 mg/kg/daily), all mice died. Mice survived at 40 mg/kg/day, but appeared sick. […] Tumors were subsequently harvested, lysed, and analyzed by quantitative PCR. All doses of Pentamidine led to a reduction of SPP1, β3 integrin, and t-PA (PLAT) mRNA expression in tumor tissue (FIG. 15J).

For data set [3] the following is noted: patients, 4 mg/kg i.m. daily (FDA labeling); cited from earlier work.
For data set [4], the system named is SPP1 mRNA. Put plainly: SPP1 mRNA by quantitative PCR in WM858 cells. Format: cell-based.
Description: (§3) FIGS. 15A-15J illustrate that pentamidine inhibits SPP1 expression, proliferation, and invasion of melanoma cells. […] FIGS. 15B-15D illustrate that pentamidine inhibits SPP1 promoter activity in the DUAL-GLO® assay (FIG. 15B), but also by quantitative PCR in normal WM858 (FIG. 15C) and M12 cells (FIG. 15D). […] FIG. 15I is a chart illustrating that pentamidine injections reduce SPP1, ([…], and t-PA (PLAT) mRNA expression in M12 PDX. Average of three mice is shown. PENTA, Pentamidine; DABRA, Dabrafenib. WM858 and M12 are B-rafV600E metastatic melanoma cells.
as §1

Data set [5] deals with SPP1 promoter. Put plainly: SPP1 promoter dual luciferase (DUAL-GLO) screen of LOPAC library in WM858 cells. It is filed as cell-based. To be noted: WM858 cells with luciferase-tagged SPP1 promoter. An excerpt: FIG. 14 depict the luciferase construct for high-throughput screening. Genomic structure of the SPP1 gene is shown as well as a targeting approach. A DNA double-strand break was induced in exon (E) 2 of SPP1, 3′ of the ATG start codon by a custom-made zinc finger nuclease (ZFN), arrow. A targeting vector with 500 bp homology arms (HA, middle), Hygromycin resistance (HYGRO), a target promoter-driven firefly luciferase (LUC2P), and a CMV-pomoter driven renilla luciferase (HRLUC) was offered for repair at the time of the double-strand break. PA, PA terminator signal. Blue boxes, untranslated region; black boxes, translated region.
Osteopontin (SPP1) is a proto-typical cancer-associated extracellular matrix gene and ligand of αv and α5β1 integrins. SPP1 is highly overexpressed in melanoma (Talantov et al., Clin. Cancer Res. 11:7234-42 (2005)) and its upregulation correlates with metastasis risk (Conway et al., Clin. Cancer Res. 15:6939-6946 (2009) and Mitra et al., Br. J. Cancer 103:1229-1236 (2010)). To rapidly screen chemical compounds for their ability to inhibit SPP1 expression in vitro, the endogenous SPP1 promoter of WM858 melanoma cells was tagged with a dual luciferase system using zinc finger nucleases. The SPP1-promoter drives firefly luciferase tagged with a protein degradation sequence (hPEST). A CMV-promoter driven renilla luciferase was used as a loading control (FIG. 14). […]

The test system of data set [6] is β3 integrin mRNA. Kind of data set: β3 integrin mRNA in M12 xenograft tumor tissue by quantitative PCR. It is filed as in vivo, mice. The note with it: all doses i.m. for six days.
Description: as §3
as §2, with “(1969)).” for “(1969)). In the current study, at the highest Pentamidine dose (80 mg/kg/daily), all mice died. Mice survived at 40 mg/kg/day, but appeared sick.”, “All doses of Pentamidine led to a reduction of SPP1, β3 integrin, and t-PA (PLAT) mRNA expression in tumor tissue (FIG. 15J).” left out

Data set [7] in a line: in vitro. It is filed as cell-based. The note with it: human. The method, then:
as §1
This is another data set of the same source.

Data set [8] relates to SPP1 mRNA. Kind of data set: SPP1 mRNA by quantitative PCR in M12 cells. Format: cell-based, human.
Description: as §3, §1

Data set [9] concerns β3 integrin (ITGB3). Kind of data set: Expression of β3 integrin (ITGB3) in melanoma cells. It is filed as cell-based. The note with it: FIG. 15E.
Description: as §3, §1

The test system of data set [10] is M12 cells. Kind of data set: M12 invasion into Matrigel-embedded scratch wounds. Format: cell-based, human. To be noted: 2 mg/mL Matrigel, compared with Dabrafenib.
Description: as §3, §1

Data set [11] deals with t-PA (PLAT) mRNA. Kind of data set: t-PA (PLAT) mRNA in M12 xenograft tumor tissue by quantitative PCR. It is filed as in vivo, mice. The note with it: all doses i.m. for six days.
Description: as §3
as §2, with “(1969)).” for “(1969)). In the current study, at the highest Pentamidine dose (80 mg/kg/daily), all mice died. Mice survived at 40 mg/kg/day, but appeared sick.”, “All doses of Pentamidine led to a reduction of SPP1, β3 integrin, and t-PA (PLAT) mRNA expression in tumor tissue (FIG. 15J).” left out

For data set [12], the system named is SPP1 mRNA. Kind of data set: SPP1 mRNA in M12 xenograft tumor tissue by quantitative PCR. To be noted: all doses i.m. for six days. Format: in vivo, mice.
Description: as §3
as §2, with “(1969)).” for “(1969)). In the current study, at the highest Pentamidine dose (80 mg/kg/daily), all mice died. Mice survived at 40 mg/kg/day, but appeared sick.”, “All doses of Pentamidine led to a reduction of SPP1, β3 integrin, and t-PA (PLAT) mRNA expression in tumor tissue (FIG. 15J).” left out

For data set [13], the system named is M12 cells. Kind of data set: M12 proliferation, automated count of red-fluorescent nuclei (IncuCyte ZOOM). It is filed as cell-based. The note with it: Homo sapiens, nuclei counted over time, read-out: M12 proliferation ED50. As to the method: Automated quantification of cell proliferation was by the INCUCYTE™ kinetic imaging system (Essen Bioscience). Approximately 2,000 cells were seeded into a 96-well cell culture dish, eight replicates per condition over the indicated time. Data analysis was with the INCUCYTE ZOOM software package.
as §1

The conditions of data set [14]: rats, 10 mg/kg i.m. daily; cited from earlier work.
The subject of data set [15] is t-PA (PLAT). Put plainly: Expression of t-PA (PLAT) in melanoma cells. It is filed as cell-based. The note with it: FIG. 15E.
Description: as §3, §1

Each structure is given as a SMILES string. “And” between values parts separate entries of the source, which are not always exact repeats. Identical values can stand only once. Like-named read-outs stand apart in the source and are kept apart here.

As for `N=C(N)c1ccc(OCCCCCOc2ccc(C(=N)N)cc2)cc1` [Pentamidine, 4,4′-[pentane-1,5-diylbis(oxy)]dibenzenecarboximidamide], the EC50 in data set [1] is above 100 µM; in [7] it was above 100 µM; in data set [13] it was 40 µM. The “survival / tolerability of mice” value in data set [2] (40 mg/kg/day i.m.) is on record as “appeared sick”; in [2] (80 mg/kg/daily i.m.), “all mice died”; in [2] (other two doses, specifically 8 mg/kg/day i.m.), “well tolerated”. For the same compound, the serum concentration was 0.2-1.4 μg/mL and 0.3-2.4 μM in data set [3]; 0.1 to 0.4 µg/mL in [14]. For the same compound, the “SPP1 mRNA” value in data set [4] and in data set [8] was “inhibited” throughout. In addition, the “Normalized ratio: firefly signal normalized to renilla signal, then to DMSO-treated control wells” value in [5] is below 0.25. The “β3 integrin mRNA expression in tumor tissue” value in data set [6] is “reduction”. In data set [9], the “expression of β integrin” value is “reduced”. For the same compound, the Matrigel invasion result in data set [10] is listed as “more effectively than Dabrafenib”. Further, in data set [11], the “t-PA (PLAT) mRNA expression in tumor tissue” value is on record as “reduction”. Also, in data set [12], the “SPP1 mRNA expression in tumor tissue” value was “reduction”. Besides, in data set [15], the “expression of t-PA (PLAT)” value is given as “reduced”.

Values taken from patent US11851710B2, “Methods and materials for identifying metastatic malignant skin lesions and treating skin cancer” (Mayo Foundation for Medical Education and Research, priority 2014, dated 2023).
